Assay results as given in PMC9879182, “New benzothiazole hybrids as potential VEGFR-2 inhibitors: design, synthesis, anticancer evaluation, and in silico study” (Journal of Enzyme Inhibition and Medicinal Chemistry, 2023).
Read-outs that look alike come from different tables or passages of the source.

Assays:
[1] = system: HCT-116 (colorectal carcinoma); assay: MTT cytotoxicity assay, HCT-116; assay type: cell-based; settings: Homo sapiens, mean ± SD, triplicate
Experimental: (§1) The in vitro anticancer activity of the new benzothiazole hybrids was evaluated by performing MTT assay as in the literature[51]^,[55]^,[56].

MCF-7 (breast cancer) = assay: MTT cytotoxicity assay, MCF-7; assay type: cell-based; settings: Homo sapiens, MCF7, mean ± SD, triplicate
Experimental: as §1

[2] = system: HEPG-2 (hepatocellular carcinoma); assay: MTT cytotoxicity assay, HepG-2; assay type: cell-based; settings: Homo sapiens, HepG2, mean ± SD, triplicate
Experimental: as §1

[3] = system: WI-38 normal fibroblast cells; assay: MTT cytotoxicity against normal cells; assay type: cell-based; settings: Homo sapiens, mean ± SD, triplicate
Experimental: as §1
All tested compounds were studied for their cytotoxic activity on the WI-38 normal fibroblast WI-38 cells to assess their therapeutic safety.

[4] = system: HCT-116, HEPG-2, and MCF-7; assay: MTT cytotoxicity assay, range over the three cancer cell lines; assay type: cell-based, human; settings: range over HCT-116, HEPG-2 and MCF-7, read-out: IC50 range towards the three cell lines
Experimental: as §1

MCF-7 cells [5] = assay: Annexin V-FITC/PI apoptosis assay; assay type: cell-based, human; settings: MCF-7, 24 h; untreated control 0.59%
Experimental: The extent of apoptosis was evaluated on MCF-7 cells and Annexin V-FITC/PI apoptosis detection kit following the reported method[51]^,[59].
The development of apoptosis inducers is highly attractive therapeutic strategy for the identification of powerful anticancer drugs[67]^,[68].

MCF-7 cells [6] = assay: Flow cytometry cell cycle analysis (PI staining); assay type: cell-based, human; settings: for phase of cell cycle arrest: MCF-7, 24 h; for Cell cycle distribution (%) G2-M / Cell cycle distribution (%) S / Cell cycle distribution (%) G0-G1: MCF-7, IC50 concentration, 24 h; for Cell cycle distribution (%) G2-M: control (DMSO) 10.19; for Cell cycle distribution (%) S: control (DMSO) 31.89; for Cell cycle distribution (%) G0-G1: control (DMSO) 57.92
Experimental: It was carried out using MCF-7 cell lines stained with PI and analysed by FACS Calibur flow cytometer as reported[51]^,[58].
The cells were treated with DMSO as a control.

VEGFR-2 [7] = biological target: T1, VEGFR-2 (Homo sapiens, UniProt P35968); assay: In vitro VEGFR-2 kinase inhibitory assay; assay type: biochemical; settings: for inhibition at 1 µM: VEGFR-2, compound at 1 μM; for inhibition at 10 µM: VEGFR-2, compound at 10 μM; for % Inhibition 10 nm: VEGFR-2, compound at 10 nm; for % Inhibition 100 nm: VEGFR-2, compound at 100 nm; for IC50: four concentrations 10 nM–10 μM
T1 construct: VEGFR-2 enzyme assay was performed as reported[57]
T1 sequence (P35968 20-1356): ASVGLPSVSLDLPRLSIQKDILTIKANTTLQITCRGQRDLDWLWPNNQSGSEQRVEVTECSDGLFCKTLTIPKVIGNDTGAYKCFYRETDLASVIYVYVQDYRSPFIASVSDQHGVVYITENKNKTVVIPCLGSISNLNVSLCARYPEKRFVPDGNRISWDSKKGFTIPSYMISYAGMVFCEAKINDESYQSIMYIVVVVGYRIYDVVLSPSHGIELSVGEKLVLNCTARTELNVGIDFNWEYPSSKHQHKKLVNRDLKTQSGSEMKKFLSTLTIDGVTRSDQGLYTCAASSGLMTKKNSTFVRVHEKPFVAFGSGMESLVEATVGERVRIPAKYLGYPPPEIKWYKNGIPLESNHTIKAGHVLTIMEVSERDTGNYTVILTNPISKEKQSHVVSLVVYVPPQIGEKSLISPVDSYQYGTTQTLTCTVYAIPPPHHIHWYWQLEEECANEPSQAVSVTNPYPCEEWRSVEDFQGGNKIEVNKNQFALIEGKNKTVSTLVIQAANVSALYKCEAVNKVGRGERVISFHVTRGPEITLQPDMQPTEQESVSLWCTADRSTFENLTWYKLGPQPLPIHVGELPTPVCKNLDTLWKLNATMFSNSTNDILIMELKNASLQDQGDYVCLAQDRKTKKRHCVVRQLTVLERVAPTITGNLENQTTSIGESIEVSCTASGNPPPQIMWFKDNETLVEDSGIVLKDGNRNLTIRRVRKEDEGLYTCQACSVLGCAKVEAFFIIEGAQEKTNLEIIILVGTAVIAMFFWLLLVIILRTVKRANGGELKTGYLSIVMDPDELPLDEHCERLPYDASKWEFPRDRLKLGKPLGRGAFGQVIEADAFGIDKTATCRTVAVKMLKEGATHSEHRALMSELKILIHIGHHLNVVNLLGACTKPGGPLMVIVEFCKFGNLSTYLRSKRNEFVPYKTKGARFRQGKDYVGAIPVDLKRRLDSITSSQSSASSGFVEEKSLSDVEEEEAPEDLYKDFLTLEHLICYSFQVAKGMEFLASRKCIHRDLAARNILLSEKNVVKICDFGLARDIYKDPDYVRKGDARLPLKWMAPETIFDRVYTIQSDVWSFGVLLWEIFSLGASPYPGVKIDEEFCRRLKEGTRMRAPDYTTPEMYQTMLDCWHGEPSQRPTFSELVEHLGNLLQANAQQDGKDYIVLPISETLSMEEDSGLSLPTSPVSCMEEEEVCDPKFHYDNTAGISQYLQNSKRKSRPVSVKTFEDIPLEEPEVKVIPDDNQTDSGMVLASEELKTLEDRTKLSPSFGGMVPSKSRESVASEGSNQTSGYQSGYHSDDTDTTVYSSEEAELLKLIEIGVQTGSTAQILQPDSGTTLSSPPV

VEGFR-2 [8] = biological target: T1, VEGFR-2; settings: cited from earlier work

| SMILES | IC50 [1] [µM] | IC50 (MCF-7 (breast cancer)) [µM] | IC50 [2] [µM] | IC50 [3] [µM] | IC50 ([4]; Homo sapiens) [µM] | ratio of total apoptotic cells (early and late apoptotic cells) (MCF-7 cells [5]) [%] | IC50 [4] [µM] | phase of cell cycle arrest (MCF-7 cells [6]) | Cell cycle distribution (%) G2-M (MCF-7 cells [6]) [%] | Cell cycle distribution (%) S (MCF-7 cells [6]) [%] | Cell cycle distribution (%) G0-G1 (MCF-7 cells [6]) [%] | inhibition at 1 µM (VEGFR-2 [7]) [%] | inhibition at 10 µM (VEGFR-2 [7]) [%] | % Inhibition 10 nm (VEGFR-2 [7]) [%] | % Inhibition 100 nm (VEGFR-2 [7]) [%] | IC50 (VEGFR-2 [7]) [nM] | melting point [°C] | IC50 (VEGFR-2 [8]) [nM] |
| --- | --- | --- | --- | --- | --- | --- | --- | --- | --- | --- | --- | --- | --- | --- | --- | --- | --- | --- |
| CNC(=O)c1cc(Oc2ccc(NC(=O)Nc3ccc(Cl)c(C(F)(F)F)c3)cc2)ccn1 [SOR, Sorafenib, reference compound] | 5.23 ± 0.3 | 4.17 ± 0.2 | 4.5 ± 0.2 | 6.72 ± 0.5 | – | – | – | – | – | – | – | – | – | – | – | – | – | – |
| COc1ccc(C=C2SC(=O)N(CC(=O)Nc3nc4ccc([N+](=O)[O-])cc4s3)C2=O)cc1 [4b, 2-(5-(4-Methoxybenzylidene)-2,4-dioxothiazolidin-3-yl)-N-(6-nitrobenzo[d]thiazol-2-yl)acetamide] | 29.9 ± 2.2 | 22.3 ± 1.7 | 34.7 ± 2.4 | 77.6 ± 4.3 | 22.3 to 34.7 | – | – | – | – | – | – | – | – | – | – | – | – | – |
| O=C(CN1C(=O)SC(=Cc2ccc(Br)cc2)C1=O)Nc1nc2ccc([N+](=O)[O-])cc2s1 [4c, 2-(5-(4-Bromobenzylidene)-2,4-dioxothiazolidin-3-yl)-N-(6-nitrobenzo[d]thiazol-2-yl)acetamide] | 47.9 ± 2.9 | 50.1 ± 2.9 | 65.5 ± 3.6 | 28.9 ± 2.2 | 47.9 to 65.5 | – | – | – | – | – | – | – | – | – | – | – | – | – |
| COc1cc(C=C2SC(=O)N(CC(=O)Nc3nc4ccc([N+](=O)[O-])cc4s3)C2=O)cc(OC)c1OC [4e, 2-(2,4-Dioxo-5–(3,4,5-trimethoxybenzylidene)thiazolidin-3-yl)-N-(6-nitrobenzo[d]thiazol-2-yl)acetamide] | 8.24 ± 0.6 | 6.11 ± 0.4 | 9.04 ± 0.8 | 32.8 ± 2.3 | 3.84 to 9.04 | 42.17 | 6.11 to 9.04 | S phase | 4.99 | 42.66 | 52.35 | 70.5 | 88.7 | 24.09 | 42.84 | 161 | – | – |
| Cc1ccc(-c2nc(SCC(=O)Nc3nc4ccc([N+](=O)[O-])cc4s3)[nH]c(=O)c2C#N)cc1 [8a] | 13.9 ± 1 | 10.9 ± 0.8 | 18.1 ± 1.4 | 53.1 ± 3.1 | 10.9 to 18.1 | 30.75 | – | G1/S phase | 2.53 | 36.11 | 61.36 | 70.1 | 83.5 | 16.31 | 37.14 | 266 | – | – |
| Cc1ccc(C=C2SC(=O)N(CC(=O)Nc3nc4ccc([N+](=O)[O-])cc4s3)C2=O)cc1 [4d, 2-(5-(4-Methylbenzylidene)-2,4-dioxothiazolidin-3-yl)-N-(6-nitrobenzo[d]thiazol-2-yl)acetamide] | 26.8 ± 2.1 | 15.5 ± 1.2 | 21.1 ± 1.8 | 74 ± 4.1 | 15.5 to 26.8 | – | – | – | – | – | – | – | – | – | – | – | 201 to 203 | – |
| O=C(CN1C(=O)S/C(=C\c2ccc(F)cc2)C1=O)Nc1nc2ccccc2s1 [X] | – | – | – | – | – | – | – | – | – | – | – | – | – | – | – | – | – | 190 |
| O=C(CN1C(=O)SC(=Cc2ccc(F)cc2)C1=O)Nc1nc2ccc([N+](=O)[O-])cc2s1 [4a, 2-(5-(4-Fluorobenzylidene)-2,4-dioxothiazolidin-3-yl)-N-(6-nitrobenzo[d]thiazol-2-yl)acetamide] | 5.61 ± 0.3 | 3.84 ± 0.1 | 7.92 ± 0.6 | 45.2 ± 2.6 | 3.84 to 9.04 | 49.71 | – | – | 3.28 | 49.85 | 46.87 | 77.9 | 92 | 31.27 | 45.14 | 91 | – | – |
